Target: T1, human CTPS1 (Homo sapiens, UniProt P17812)
T1 construct: FLAG (with GG linker); His8 (with GG linker); purchased Proteros biostructures GmbH
T1 sequence (P17812 1-591): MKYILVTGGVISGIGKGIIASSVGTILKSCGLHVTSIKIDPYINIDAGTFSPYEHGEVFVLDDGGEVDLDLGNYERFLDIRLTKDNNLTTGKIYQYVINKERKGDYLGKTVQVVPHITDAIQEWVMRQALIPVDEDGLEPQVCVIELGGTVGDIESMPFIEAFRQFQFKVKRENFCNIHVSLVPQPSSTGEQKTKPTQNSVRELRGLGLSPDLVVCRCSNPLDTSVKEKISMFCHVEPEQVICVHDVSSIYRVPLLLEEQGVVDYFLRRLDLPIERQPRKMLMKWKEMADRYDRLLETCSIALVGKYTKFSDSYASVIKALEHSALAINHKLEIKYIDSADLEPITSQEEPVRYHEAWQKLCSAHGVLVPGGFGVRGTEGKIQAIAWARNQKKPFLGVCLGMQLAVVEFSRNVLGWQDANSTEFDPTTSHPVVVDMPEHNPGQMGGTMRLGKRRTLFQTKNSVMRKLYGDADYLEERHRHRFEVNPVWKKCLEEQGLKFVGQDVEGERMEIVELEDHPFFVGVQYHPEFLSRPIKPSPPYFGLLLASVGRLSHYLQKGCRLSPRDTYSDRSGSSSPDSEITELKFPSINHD
Assay: Human CTPS1 enzyme inhibition, ADP-Glo Max assay
Type: biochemical
Conditions: ADP-Glo Max assay; Table 10; read-out: Human CTPS1 Enzyme Inhibition, IC50 grouped by potency range (CTPS1)
Protocol: The enzyme inhibitory activities of compounds invented against the target of interest were determined using the ADP-Glo™ Max assay (Promega, UK). Assays for human CTPS1 were performed in 1× assay buffer containing 50 mM Tris, 10 mM MgCl2, 0.01% Tween-20, pH to 8.0 accordingly. Finally, immediately before use, L-cysteine was added to the 1× assay buffer to a final concentration of 2 mM. All reagents are from Sigma-Aldrich unless specified otherwise.
3× human CTPS1 protein was prepared in 1× assay buffer to the final working protein concentration required for the reaction. A 2 uL volume per well of 3× human CTPS1 protein was mixed with 2 uL per well of 3× test compound (compound prepared in 1× assay buffer to an appropriate final 3× compound concentration respective to the concentration response curve designed for the compounds under test) for 10 minutes at 25° C. […] ADP-Glo™ Max reagent was added for 60 minutes (6 μL per well) and subsequently ADP-Glo™ Max development reagent was added for 60 minutes (12 uL per well) prior to signal detection in a microplate reader (EnVision® Multilabel Reader, Perkin Elmer). Following each reagent addition over the course of the assay, assay plates were pulse centrifuged for 30 seconds at 500 rpm.
In all cases, the enzyme converts ATP to ADP and the ADP-Glo™ Max reagent subsequently depletes any remaining endogenous ATP in the reaction system. The ADP-Glo™ Max detection reagent converts the ADP that has been enzymatically produced back into ATP and using ATP as a substrate together with luciferin for the enzyme luciferase, light is generated which produces a detectable luminescence. […] The percentage inhibition produced by each concentration of compound was calculated using the equation shown below: […]

SMILES | IC50
COc1cncc(-c2ccc(NC(=O)C(C)(C)c3csc(NS(=O)(=O)C4CC4)n3)c(F)c2)c1 [T56, 2-(2-(cyclopropanesulfonamido)thiazol-4-yl)-N-(2-fluoro-4-(5-methoxypyridin-3-yl)phenyl)-2-methylpropanamide] | < 100 nM
CC(C)(C(=O)Nc1ccc(-c2cccc(C(F)(F)F)n2)cn1)c1csc(NS(=O)(=O)C2CC2)n1 [T51, 2-(2-(cyclopropanesulfonamido)thiazol-4-yl)-2-methyl-N-(6-(trifluoromethyl)-[2,3′-bipyridin]-6′-yl)propanamide] | < 100 nM
COc1ccccc1-c1ccc(NC(=O)Cc2csc(NS(=O)(=O)C3CC3)n2)cc1 [T246, 2-(2-(cyclopropanesulfonamido)thiazol-4-yl)-N-(2′-methoxy-[1,1′-biphenyl]-4-yl)acetamide] | 100 to 1000 nM
COc1cncc(-c2cnc(NC(=O)C(C)(C)c3csc(NS(=O)(=O)C4CC4)n3)nc2)c1 [T292, 2-(2-(cyclopropanesulfonamido)thiazol-4-yl)-N-(5-(5-methoxypyridin-3-yl)pyrimidin-2-yl)-2-methylpropanamide] | 100 to 1000 nM
CC(C)(C(=O)Nc1ccc(-c2cnccn2)cn1)c1csc(NS(=O)(=O)C2CC2)n1 [T140, 2-(2-(cyclopropanesulfonamido)thiazol-4-yl)-2-methyl-N-(5-(pyrazin-2-yl)pyridin-2-yl)propanamide] | 100 to 1000 nM
CC(C)(C(=O)Nc1ccc(-c2cccnc2)c(F)c1)c1csc(NS(=O)(=O)C2CC2)n1 [T151, 2-(2-(cyclopropanesulfonamido)thiazol-4-yl)-N-(3-fluoro-4-(pyridin-3-yl)phenyl)-2-methylpropanamide] | 100 to 1000 nM
CC(C)(C(=O)Nc1ncc(-c2cncc(C(F)(F)F)c2)cn1)c1csc(NS(=O)(=O)C2CC2)n1 [T294, 2-(2-(cyclopropanesulfonamido)thiazol-4-yl)-2-methyl-N-(5-(5-(trifluoromethyl)pyridin-3-yl)pyrimidin-2-yl)propanamide] | 100 to 1000 nM
CC(C)(C(=O)Nc1ccc(-c2cncc(C#N)c2)cc1F)c1csc(NS(=O)(=O)C2CC2)n1 [T129, N-(4-(5-cyanopyridin-3-yl)-2-fluorophenyl)-2-(2-(cyclopropanesulfonamido)thiazol-4-yl)-2-methylpropanamide] | < 100 nM
CC(C)(C(=O)Nc1ccc(-c2cncnc2)cn1)c1csc(NS(=O)(=O)C2CC2)n1 [T264, 2-(2-(cyclopropanesulfonamido)thiazol-4-yl)-2-methyl-N-(5-(pyrimidin-5-yl)pyridin-2-yl)propanamide] | 100 to 1000 nM
CC(C)(C(=O)Nc1ccc(-c2cncc(F)c2)cc1F)c1csc(NS(=O)(=O)C2CC2)n1 [T126, 2-(2-(cyclopropanesulfonamido)thiazol-4-yl)-N-(2-fluoro-4-(5-fluoropyridin-3-yl)phenyl)-2-methylpropanamide] | < 100 nM
O=C(Cc1csc(NS(=O)(=O)C2CC2)n1)Nc1ccc(-c2ccc(F)cc2)cc1 [T25, 2-(2-(cyclopropanesulfonamido)thiazol-4-yl)-N-(4′-fluoro-[1,1′-biphenyl]-4-yl)acetamide] | 1000 to 10000 nM
CC(C)(C(=O)Nc1ccc(-c2cncc(C(F)(F)F)c2)cc1F)c1csc(NS(=O)(=O)CC2CC2)n1 [T427, 2-(2-((cyclopropylmethyl)sulfonamido)thiazol-4-yl)-N-(2-fluoro-4-(5-(trifluoromethyl)pyridin-3-yl)phenyl)-2-methylpropanamide] | 100 to 1000 nM
CC(C)(C(=O)Nc1ccc(-c2cccnc2)cc1OC(F)(F)F)c1csc(NS(=O)(=O)C2CC2)n1 [T40, 2-(2-(cyclopropanesulfonamido)thiazol-4-yl)-2-methyl-N-(4-(pyridin-3-yl)-2-(trifluoromethoxy)phenyl)propanamide] | < 100 nM

Continued, values first:

IC50 | SMILES
< 100 nM | Cc1cncc(-c2ccc(NC(=O)C(C)(C)c3csc(NS(=O)(=O)C4CC4)n3)nc2)n1 [T464, 2-(2-(cyclopropanesulfonamido)thiazol-4-yl)-2-methyl-N-(5-(6-methylpyrazin-2-yl)pyridin-2-yl)propanamide]
< 100 nM | CCOc1cncc(-c2ccc(NC(=O)C(C)(C)c3csc(NS(C)(=O)=O)n3)c(C(F)(F)F)c2)n1 [T429, N-(4-(6-ethoxypyrazin-2-yl)-2-(trifluoromethyl)phenyl)-2-methyl-2-(2-(methylsulfonamido)thiazol-4-yl)propanamide]
< 100 nM | CCOc1cncc(-c2ccc(NC(=O)C(C)(C)c3csc(NS(=O)(=O)C4CC4)n3)cc2)n1 [T52, 2-(2-(cyclopropanesulfonamido)thiazol-4-yl)-N-(4-(6-ethoxypyrazin-2-yl)phenyl)-2-methylpropanamide]
< 100 nM | CCOc1cncc(-c2ccc(NC(=O)C(C)(C)c3csc(NS(=O)(=O)C4CC4)n3)c(F)c2)n1 [T134, 2-(2-(cyclopropanesulfonamido)thiazol-4-yl)-N-(4-(6-ethoxypyrazin-2-yl)-2-fluorophenyl)-2-methylpropanamide]
1000 to 10000 nM | CC(C)(C(=O)Nc1ccc(-c2cnccc2C(F)(F)F)cc1)c1csc(NS(=O)(=O)C2CC2)n1 [T255, 2-(2-(cyclopropanesulfonamido)thiazol-4-yl)-2-methyl-N-(4-(4-(trifluoromethyl)pyridin-3-yl)phenyl)propanamide]
100 to 1000 nM | Cc1cc(NC(=O)C(C)(C)c2csc(NS(=O)(=O)C3CC3)n2)ccc1-c1cncc(Cl)c1 [T288, N-(4-(5-chloropyridin-3-yl)-3-methylphenyl)-2-(2-(cyclopropanesulfonamido)thiazol-4-yl)-2-methylpropanamide]
< 100 nM | CCOc1cncc(-c2ccc(NC(=O)C(C)(C)c3csc(NS(=O)(=O)C(C)C)n3)cc2)n1 [T298, N-(4-(6-ethoxypyrazin-2-yl)phenyl)-2-methyl-2-(2-((1-methylethyl)sulfonamido)thiazol-4-yl)propanamide]
100 to 1000 nM | CCOc1cncc(-c2ccc(NC(=O)C(C)(C)c3csc(NS(=O)(=O)CC(C)C)n3)cc2)n1 [T312, N-(4-(6-ethoxypyrazin-2-yl)phenyl)-2-methyl-2-(2-((2-methylpropyl)sulfonamido)thiazol-4-yl)propanamide]
< 100 nM | CC(C)(C(=O)Nc1ccc(-c2cncc(OCC(F)(F)F)n2)cc1)c1csc(NS(=O)(=O)C2CC2)n1 [T127, 2-(2-(cyclopropanesulfonamido)thiazol-4-yl)-2-methyl-N-(4-(6-(2,2,2-trifluoroethoxy)pyrazin-2-yl)phenyl)propanamide]
< 100 nM | CC(C)(C(=O)Nc1ccc(-c2cncc(OC3CC3)n2)cc1)c1csc(NS(=O)(=O)C2CC2)n1 [T273, 2-(2-(cyclopropanesulfonamido)thiazol-4-yl)-N-(4-(6-cyclopropoxypyrazin-2-yl)phenyl)-2-methylpropanamide]
< 100 nM | CC(C)(C(=O)Nc1ccc(-c2cncc(OC3CC3)n2)cn1)c1csc(NS(=O)(=O)C2CC2)n1 [T142, 2-(2-(cyclopropanesulfonamido)thiazol-4-yl)-N-(5-(6-cyclopropoxypyrazin-2-yl)pyridin-2-yl)-2-methylpropanamide]
< 100 nM | CC(C)Oc1cncc(-c2ccc(NC(=O)C(C)(C)c3csc(NS(=O)(=O)C4CC4)n3)c(F)c2)c1 [T159, 2-(2-(cyclopropanesulfonamido)thiazol-4-yl)-N-(2-fluoro-4-(5-isopropoxypyridin-3-yl)phenyl)-2-methylpropanamide]
